Laboratory results published in US20200138890A1, “PHARMACEUTICAL COMPOSITION FOR PREVENTION AND TREATMENT OF PROSTATIC HYPERPLASIA AND ERECTILE DYSFUNCTION CAUSED BY ANDROPAUSE COMPRISING EXTRACT OF LESPEDEZA CUNEATA AND TRIGONELLAE SEMEN” (DUHANBIO CO., LTD., priority 2017, published 2020).
Structures can show the parent of a compound that is named as a salt.

Tests used:
[1] = system: male SD rats with prostate gland hypertrophy induced by testosterone; experiment: Inhibition of prostatic hyperplasia in vivo (testosterone-induced prostate gland hypertrophy, prostate weight); settings: testosterone 3 mg/kg/day s.c.; Examples 50 mg/kg oral, finasteride 2 mg/kg oral, 3 weeks
Source text: At this time, finasteride was used as the positive control group.
On the day of the last administration, the animals were weighed and then sacrificed, and blood was collected and the prostate glands were excised.

[2] = system: male SPF New Zealand albino rabbits; experiment: Erectile promoting effect in vivo (erection start time and duration); set-up: species or system rabbit; settings: oral, Examples 50 mg/kg, sildenafil citrate 20 mg/kg
Protocol: Based on the above results, the effects on erectile promotion of the compositions of Examples 6 to 9 of the present invention in vivo were measured. At this time, sildenafil citrate was used as a positive control group. Specifically, as experimental animals, six male SPF New Zealand albino rabbits (about 3.5 to 4.0 kg body weight, Samtako, Korea) per test group were used, and these rabbits were placed in cages and fed a constant amount of conventional solid feed for rabbits and water under the same condition for 4 days or more. The rabbit was fasted for 48 hours or more and then used for the test. When fasting, the rabbits were allowed to drink water freely. To the rabbit prepared as described above, the compositions of Examples 6 to 9 of the present invention were orally administered at a dose of 50 mg/kg per animal. Meanwhile, sildenafil citrate, a positive control group, was orally administered at a dose of 20 mg/kg. After administration as described above, the erection start time and duration were measured.

[3] = listed as positive control group

Row | SMILES | Prostate gland weight [1] | Prostate gland/body weight (%) [1] | Erection maintenance time ([2]; listed as Control group) | Erection start time ([2]; listed as Control group) | Maximum Erection time ([2]; listed as Control group) | Erection maintenance time [2, 3] | Erection start time [2, 3] | Maximum Erection time [2, 3]
1 | CC(C)(C)NC(=O)[C@H]1CC[C@H]2[C@@H]3CC[C@H]4NC(=O)C=C[C@]4(C)[C@H]3CC[C@]12C [Finasteride, finasteride] | 0.92 ± 0.11 g | 0.24 ± 0.02% |  |  |  |  |  | 
2 | CCCc1nn(C)c2c(=O)[nH]c(-c3cc(S(=O)(=O)N4CCN(C)CC4)ccc3OCC)nc12 [sildenafil citrate] |  |  | 120 ± 5 min | 6.2 ± 1.1 min | 19 ± 1 min | 120 min | about 6 Min. | about 19 Min.
